Measured values published in patent US20260167622A1, “PAN-KRAS DEGRADING AGENT, AND PREPARATION METHOD THEREFOR AND USE THEREOF” (LEADINGTAC PHARMACEUTICAL (SHAOXING) CO., LTD., priority 2022, published 2026).

Key:
Assay type in all cases: cell-based
[1] = target: T1, KRAS G12V protein in SW900 cells (Homo sapiens, UniProt P01116, G12V); assay: KRAS degradation assay (Western Blot) in SW900 cells; details: 24 h
T1 construct: endogenous in cells; host or cells: SW900
Outline: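 AsPc-1, A427, DLD-1 and SW900 cells (5×10^5/well) were treated 24 h at 37 °C with compound at 0.03-3000 nM final (0.25% DMSO). KRAS in lysates was detected by Western blot (5 μg protein, ECL), normalized to β-actin and compared with control to derive DC50 and Dmax.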

[2] = test system: KRAS G12D mutant human lung cancer cell A427; assay: 3D cell proliferation inhibition assay, A427; details: A-427, 168 h, 3D culture, 7 days, CTG
Description: (§1) Test Example 6: 3D Cell Proliferation Inhibition Assay
(§2) The inhibitory effects of the compounds on 3D cell proliferation were investigated on KRAS G12C mutant human non-small cell lung cancer cell NCI-H358, KRAS G12D mutant human lung cancer cell A427, KRAS G12D mutant human gastric cancer cell AGS, KRAS G12D mutant human metastatic pancreatic cancer cell AsPc-1, KRAS G12V mutant human lung squamous carcinoma cell SW900, KRAS G12V mutant human colorectal cancer cell SW620, KRAS G13D mutant human colorectal cancer epithelial cell DLD-1, and KRAS WT human gastric cancer cell MKN1. The specific procedures were as follows:
(§3) 10 μL of each compound solution diluted in a gradient was added to corresponding wells of a 96-well low-adsorption microplate (PerkinElmer), so that the final concentrations of the test compounds in the reaction system were in a range of 10000-0.026 nM. The final concentration of DMSO was 0.2%. Then 90 µL of cells were correspondingly seeded into each well to achieve a cell density of 5×10^2 cells/well (the cell density of SW900 was 5×10^3 cells/well, and the cell density of MKN1 was 1×10^3 cells/well). In addition to test wells for the test compounds, both a DMSO control well and a medium control well were set, with the DMSO control well containing DMSO and cells and the medium well containing only a medium. After the sample loading, the 96-well low-adsorption microplate was incubated in an incubator at 37° C. with […] for 7 days. After 7 days, the microplate was taken out, and 100 μL of CTG reagent (Promega) was added to each well. The plate was incubated at room temperature for 60 m and read on a microplate reader EnVision by the chemiluminescence program. The inhibition rates of the compounds at each concentration were calculated using the formula for the percentage inhibition of cell proliferation: inhibition rate 00=(mean value of DMSO control group−single concentration reading value of compound)/(mean value of DMSO control group−mean value of medium control group)×100. Then non-linear curve fillings for logarithmic concentration-inhibition rate were performed by GraphPad Prism 8, and the IC50 values of the compounds were obtained (Table 6).

[3] = test system: KRAS G12D mutant human gastric cancer cell AGS; assay: 3D cell proliferation inhibition assay, AGS; details: 168 h, 3D culture, 7 days, CTG
Description: as §1, §2, §3

[4] = test system: KRAS G12D mutant human metastatic pancreatic cancer cell AsPc-1; assay: 3D cell proliferation inhibition assay, AsPc-1; details: ASPC1, 168 h, 3D culture, 7 days, CTG
Outline: (§4)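 Cells were seeded in low-adsorption 96-well plates at 5×10^2 cells/well (MKN1 at 1×10^3) with compounds at final 10000-0.026 nM, 0.2% DMSO, and grown 7 days at 37° C. CTG luminescence gave inhibition relative to DMSO and medium-only controls, and IC50 came from a log-concentration curve fit.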

[5] = test system: KRAS G12C mutant human non-small cell lung cancer cell NCI-H358; assay: 3D cell proliferation inhibition assay, NCI-H358; details: NCI-H358, 168 h, 3D culture, 7 days, CTG
Outline: as §4

[6] = test system: KRAS G12V mutant human lung squamous carcinoma cell SW900; assay: 3D cell proliferation inhibition assay, SW900; details: SW900, 168 h, 3D culture, 7 days, CTG
[7] = test system: KRAS G13D mutant human colorectal cancer epithelial cell DLD-1; assay: 3D cell proliferation inhibition assay, DLD-1; details: DLD-1, 168 h, 3D culture, 7 days, CTG
Outline: as §4

[8] = test system: KRAS WT human gastric cancer cell MKN1; assay: 3D cell proliferation inhibition assay, MKN1; details: MKN-1, 168 h, 3D culture, 7 days, CTG
Outline: as §4

[9] = test system: KRAS G12V mutant human colorectal cancer cell SW620; assay: 3D cell proliferation inhibition assay, SW620; details: SW-620, 168 h, 3D culture, 7 days, CTG
Outline: as §4

T1 sequence (P01116 1-188 isoform P01116-2 G12V): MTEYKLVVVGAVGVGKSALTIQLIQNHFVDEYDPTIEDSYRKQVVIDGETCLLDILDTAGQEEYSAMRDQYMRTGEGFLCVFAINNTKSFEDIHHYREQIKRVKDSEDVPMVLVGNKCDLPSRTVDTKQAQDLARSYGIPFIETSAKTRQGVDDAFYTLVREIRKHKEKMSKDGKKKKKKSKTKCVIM

Row | DC50 [1] [nM] | Dmax [1] [%] | IC50 [2] [nM] | IC50 [3] [nM] | IC50 [4] [nM] | IC50 [5] [nM] | IC50 [6] [nM] | IC50 [7] [nM] | IC50 [8] [nM] | IC50 [9] [nM] | Compound
1 | ≤ 50 | 80 to 100 | ≤ 50 | ≤ 50 | 50 to 100 | ≤ 50 | ≤ 50 | ≤ 50 | ≤ 50 |  | C#Cc1c(F)ccc2cc(O)cc(-c3ncc4c(N5CCC[C@@](C)(O)C5)nc(OCC5(CN6CCN(CCC7CCC8(CC7)CCN(C(=O)c7ccc(Cl)c(N9CCC(=O)NC9=O)c7)CC8)CC6)CC5)nc4c3F)c12 [Example 9, (R)-1-(2-chloro-5-(9-(2-(4-((1-(((7-(8-ethynyl-7-fluoro-3-hydroxynaphthalen-1-yl)-8-fluoro-4-(3-hydroxy-3-methylpiperidin-1-yl)pyrido[4,3-d]pyrimidin-2-yl)oxy)methyl)cyclopropyl)methyl)piperazin-1-yl)ethyl)-3-azaspiro[5.5]undecane-3-carbonyl)phenyl)dihydropyrimidine-2,4(1H,3H)-dione]
2 | ≤ 50 | 80 to 100 | 50 to 100 | ≤ 50 | 50 to 100 | ≤ 50 | ≤ 50 | 50 to 100 | ≤ 50 |  | C#Cc1c(F)ccc2cc(O)cc(-c3ncc4c(N5CCC[C@@](C)(O)C5)nc(OCC5(CN6CCC(COCCC7CCN(C(=O)c8ccc(Cl)c(N9CCC(=O)NC9=O)c8)CC7)CC6)CC5)nc4c3F)c12 [Example 10, (R)-1-(2-chloro-5-(4-(2-((1-((1-(((7-(8-ethynyl-7-fluoro-3-hydroxynaphthalen-1-yl)-8-fluoro-4-(3-hydroxy-3-methylpiperidin-1-yl)pyrido[4,3-d]pyrimidin-2-yl)oxy)methyl)cyclopropyl)methyl)piperidin-4-yl)methoxy)ethyl)piperidine-1-carbonyl)phenyl)dihydropyrimidine-2,4(1H,3H)-dione]
3 | ≤ 50 | 80 to 100 | 100 to 500 | ≤ 50 | ≤ 50 | ≤ 50 | ≤ 50 | ≤ 50 | ≤ 50 | 0.82 | CCc1c(F)ccc2cc(O)cc(-c3ncc4c(N5CCC[C@@](C)(O)C5)nc(OCC5(CN6CCN(CC7CCC8(CC7)CCN(C(=O)c7ccc(C)c(N9CCC(=O)NC9=O)c7)CC8)CC6)CC5)nc4c3F)c12 [Example 19, (R)-1-(5-(9-((4-((1-(((7-(8-ethyl-7-fluoro-3-hydroxynaphthalen-1-yl)-8-fluoro-4-(3-hydroxy-3-methylpiperidin-1-yl)pyrido[4,3-d]pyrimidin-2-yl)oxy)methyl)cyclopropyl)methyl)piperazin-1-yl)methyl)-3-azaspiro[5.5]undecane-3-carbonyl)-2-methylphenyl)dihydropyrimidine-2,4(1H,3H)-dione]
4 | ≤ 50 | 80 to 100 | ≤ 50 | ≤ 50 | ≤ 50 | 50 to 100 | 50 to 100 | ≤ 50 | 50 to 100 | 7.71 | C#Cc1c(F)ccc2cc(O)cc(-c3ccc4c(N5CCC[C@@](C)(O)C5)nc(OCC5(CN6CCN(CC7CCC8(CC7)CCN(C(=O)c7ccc(Cl)c(N9CCC(=O)NC9=O)c7)CC8)CC6)CC5)nc4c3F)c12 [Example 33, (R)-1-(2-chloro-5-(9-((4-((1-(((7-(8-ethynyl-7-fluoro-3-hydroxynaphthalen-1-yl)-8-fluoro-4-(3-hydroxy-3-methylpiperidin-1-yl)quinazolin-2-yl)oxy)methyl)cyclopropyl)methyl)piperazin-1-yl)methyl)-3-azaspiro[5.5]undecane-3-carbonyl)phenyl)dihydropyrimidine-2,4(1H,3H)-dione]

More lines, now with the values behind:

Row | Compound | DC50 [1] [nM] | Dmax [1] [%] | IC50 [2] [nM] | IC50 [3] [nM] | IC50 [4] [nM] | IC50 [5] [nM] | IC50 [6] [nM] | IC50 [7] [nM] | IC50 [8] [nM] | IC50 [9] [nM]
5 | CCc1cccc2cc(O)cc(-c3ncc4c(N5CCC[C@@](C)(O)C5)nc(OCC5(CN6CCN(CC7CCC8(CC7)CCN(C(=O)c7ccc(OC)c(N9CCC(=O)NC9=O)c7)CC8)CC6)CC5)nc4c3F)c12 [Example 25, (R)-1-(5-(9-((4-((1-(((7-(8-ethyl-3-hydroxynaphthalen-1-yl)-8-fluoro-4-(3-hydroxy-3-methylpiperidin-1-yl)pyrido[4,3-d]pyrimidin-2-yl)oxy)methyl)cyclopropyl)methyl)piperazin-1-yl)methyl)-3-azaspiro[5.5]undecane-3-carbonyl)-2-methoxyphenyl)dihydropyrimidine-2,4(1H,3H)-dione] | ≤ 50 | 80 to 100 | 100 to 500 | ≤ 50 | ≤ 50 | 100 to 500 | ≤ 50 | ≤ 50 | ≤ 50 | 2.45
6 | CCc1cccc2cc(O)cc(-c3ncc4c(N5CCC[C@@](C)(O)C5)nc(OCC5(CN6CCN(CC7CCC8(CC7)CCN(C(=O)c7ccc(C)c(N9CCC(=O)NC9=O)c7)CC8)CC6)CC5)nc4c3F)c12 [Example 26, (R)-1-(5-(9-((4-((1-(((7-(8-ethyl-3-hydroxynaphthalen-1-yl)-8-fluoro-4-(3-hydroxy-3-methylpiperidin-1-yl)pyrido[4,3-d]pyrimidin-2-yl)oxy)methyl)cyclopropyl)methyl)piperazin-1-yl)methyl)-3-azaspiro[5.5]undecane-3-carbonyl)-2-methylphenyl)dihydropyrimidine-2,4(1H,3H)-dione] | ≤ 50 | 80 to 100 | 100 to 500 | ≤ 50 | ≤ 50 | 100 to 500 | ≤ 50 | ≤ 50 | ≤ 50 | 2.11
7 | CCc1cccc2cc(O)cc(-c3ncc4c(N5CCC[C@@](C)(O)C5)nc(OCC5(CN6CCN(CC7CCC8(CC7)CCN(C(=O)c7ccc(F)c(N9CCC(=O)NC9=O)c7)CC8)CC6)CC5)nc4c3F)c12 [Example 28, (R)-1-(5-(9-((4-((1-(((7-(8-ethyl-3-hydroxynaphthalen-1-yl)-8-fluoro-4-(3-hydroxy-3-methylpiperidin-1-yl)pyrido[4,3-d]pyrimidin-2-yl)oxy)methyl)cyclopropyl)methyl)piperazin-1-yl)methyl)-3-azaspiro[5.5]undecane-3-carbonyl)-2-fluorophenyl)dihydropyrimidine-2,4(1H,3H)-dione] | ≤ 50 | 80 to 100 | 100 to 500 | ≤ 50 | ≤ 50 | ≤ 50 | ≤ 50 | ≤ 50 | ≤ 50 | 
8 | C#Cc1c(F)ccc2cc(O)cc(-c3ncc4c(N5CCC[C@@H](O)C5)nc(OCC5(CN6CCN(CC7CCC8(CC7)CCN(C(=O)c7ccc(C)c(N9CCC(=O)NC9=O)c7)CC8)CC6)CC5)nc4c3F)c12 [Example 45, (R)-1-(5-(9-((4-((1-(((7-(8-ethynyl-7-fluoro-3-hydroxynaphthalen-1-yl)-8-fluoro-4-(3-hydroxypiperidin-1-yl)pyrido[4,3-d]pyrimidin-2-yl)oxy)methyl)cyclopropyl)methyl)piperazin-1-yl)methyl)-3-azaspiro[5.5]undecane-3-carbonyl)-2-methylphenyl)dihydropyrimidine-2,4(1H,3H)-dione] | ≤ 50 | 80 to 100 | 50 to 100 | ≤ 50 | ≤ 50 | 100 to 500 | ≤ 50 | ≤ 50 | 50 to 100 | 
